Results from ChEMBL document CHEMBL3745645, “Synthesis, in vitro antitumor activity, dihydrofolate reductase inhibition, DNA intercalation and structure-activity relationship studies of 1,3,5-triazine analogues” (Bioorg Med Chem Lett, 2016).
Active and inactive are the calls of the source. The rule behind the calls is not given here.

How the values were obtained:
Assay type in all cases: functional
[1] = Cytotoxicity against human Caki1 cells at 10 uM after 48 hrs by SRB assay; details: CAKI-1, 48 h, read-out: GI
[2] = Cytotoxicity against human RXF393 cells at 10 uM after 48 hrs by SRB assay; details: RXF 393, 48 h, read-out: GI
SN12C = experiment: Cytotoxicity against human SN12C cells at 10 uM after 48 hrs by SRB assay; details: read-out: GI
[3] = Cytotoxicity against human TK10 cells at 10 uM after 48 hrs by SRB assay; details: TK-10, 48 h, read-out: GI
[4] = Cytotoxicity against human UO31 cells at 10 uM after 48 hrs by SRB assay; details: UO-31, 48 h, read-out: GI
[5] = Cytotoxicity against human PC3 cells at 10 uM after 48 hrs by SRB assay; details: PC-3, 48 h, read-out: GI
DU-145 = experiment: Cytotoxicity against human DU145 cells at 10 uM after 48 hrs by SRB assay
MCF7 = experiment: Cytotoxicity against human MCF7 cells at 10 uM after 48 hrs by SRB assay; details: MCF7, 48 h, read-out: GI
MDA-MB-231 = experiment: Cytotoxicity against human MDA-MB-231 cells at 10 uM after 48 hrs by SRB assay
[6] = Cytotoxicity against human Hs 578T cells at 10 uM after 48 hrs by SRB assay; details: read-out: GI
[7] = Cytotoxicity against human BT549 cells at 10 uM after 48 hrs by SRB assay; details: BT-549, 48 h, read-out: GI
T47D = experiment: Cytotoxicity against human T47D cells at 10 uM after 48 hrs by SRB assay; details: read-out: GI
MDA-MB-468 = experiment: Cytotoxicity against human MDA-MB-468 cells at 10 uM after 48 hrs by SRB assay; details: MDA-MB-468, 48 h, read-out: GI
CCRF-CEM = experiment: Cytotoxicity against human CCRF-CEM cells at 10 uM after 48 hrs by SRB assay; details: read-out: GI
K562 = experiment: Cytotoxicity against human K562 cells at 10 uM after 48 hrs by SRB assay; details: K562, 48 h, read-out: GI
[8] = Cytotoxicity against human MOLT4 cells at 10 uM after 48 hrs by SRB assay; details: MOLT-4, 48 h, read-out: GI
[9] = Cytotoxicity against human RPMI8226 cells at 10 uM after 48 hrs by SRB assay; details: RPMI-8226, 48 h, read-out: GI
SR = experiment: Cytotoxicity against human SR cells at 10 uM after 48 hrs by SRB assay; details: read-out: GI
A549 = experiment: Cytotoxicity against human A549 cells at 10 uM after 48 hrs by SRB assay; details: A549, 48 h, read-out: GI
HOP-62 = experiment: Cytotoxicity against human HOP62 cells at 10 uM after 48 hrs by SRB assay
[10] = Cytotoxicity against human HOP92 cells at 10 uM after 48 hrs by SRB assay; details: HOP-92, 48 h, read-out: GI
NCI-H226 = experiment: Cytotoxicity against human NCI-H226 cells at 10 uM after 48 hrs by SRB assay; details: NCI-H226, 48 h, read-out: GI
NCI-H23 = experiment: Cytotoxicity against human NCI-H23 cells at 10 uM after 48 hrs by SRB assay; details: NCI-H23, 48 h, read-out: GI
NCI-H322M = experiment: Cytotoxicity against human NCI-H322M cells at 10 uM after 48 hrs by SRB assay
NCI-H460 = experiment: Cytotoxicity against human NCI-H460 cells at 10 uM after 48 hrs by SRB assay; details: NCI-H460, 48 h, read-out: GI
NCI-H522 = experiment: Cytotoxicity against human NCI-H522 cells at 10 uM after 48 hrs by SRB assay; details: NCI-H522, 48 h, read-out: GI
[11] = Cytotoxicity against human COLO205 cells at 10 uM after 48 hrs by SRB assay; details: COLO 205, 48 h, read-out: GI
HCC 2998 = experiment: Cytotoxicity against human HCC2998 cells at 10 uM after 48 hrs by SRB assay
[12] = Cytotoxicity against human HCT116 cells at 10 uM after 48 hrs by SRB assay; details: HCT-116, 48 h, read-out: GI
[13] = Cytotoxicity against human HCT15 cells at 10 uM after 48 hrs by SRB assay; details: HCT-15, 48 h, read-out: GI
HT-29 = experiment: Cytotoxicity against human HT-29 cells at 10 uM after 48 hrs by SRB assay; details: HT-29, 48 h, read-out: GI
KM12 = experiment: Cytotoxicity against human KM12 cells at 10 uM after 48 hrs by SRB assay; details: KM12, 48 h, read-out: GI
[14] = Cytotoxicity against human SW620 cells at 10 uM after 48 hrs by SRB assay; details: SW-620, 48 h, read-out: GI
[15] = Cytotoxicity against human SF268 cells at 10 uM after 48 hrs by SRB assay; details: SF-268, 48 h, read-out: GI
[16] = Cytotoxicity against human SF295 cells at 10 uM after 48 hrs by SRB assay; details: SF-295, 48 h, read-out: GI
[17] = Cytotoxicity against human SF539 cells at 10 uM after 48 hrs by SRB assay; details: SF-539, 48 h, read-out: GI
[18] = Cytotoxicity against human SNB19 cells at 10 uM after 48 hrs by SRB assay; details: SNB-19, 48 h, read-out: GI
[19] = Cytotoxicity against human SNB75 cells at 10 uM after 48 hrs by SRB assay; details: SNB-75, 48 h, read-out: GI
U-251 = experiment: Cytotoxicity against human U251 cells at 10 uM after 48 hrs by SRB assay; details: U-251, 48 h, read-out: GI
LOX IMVI = experiment: Cytotoxicity against human LOXIMVI cells at 10 uM after 48 hrs by SRB assay
Malme-3M = experiment: Cytotoxicity against human MALME-3M cells at 10 uM after 48 hrs by SRB assay
M14 = experiment: Cytotoxicity against human M14 cells at 10 uM after 48 hrs by SRB assay; details: M14, 48 h, read-out: GI
MDA-MB-435 = experiment: Cytotoxicity against human MDA-MB-435 cells at 10 uM after 48 hrs by SRB assay; details: MDA-MB-435, 48 h, read-out: GI
SK-MEL-28 = experiment: Cytotoxicity against human SK-MEL-28 cells at 10 uM after 48 hrs by SRB assay; details: SK-MEL-28, 48 h, read-out: GI
SK-MEL-5 = experiment: Cytotoxicity against human SK-MEL-5 cells at 10 uM after 48 hrs by SRB assay; details: SK-MEL-5, 48 h, read-out: GI
UACC-257 = experiment: Cytotoxicity against human UACC257 cells at 10 uM after 48 hrs by SRB assay
[20] = Cytotoxicity against human UACC62 cells at 10 uM after 48 hrs by SRB assay; details: UACC-62, 48 h, read-out: GI
[21] = Cytotoxicity against human OVCAR3 cells at 10 uM after 48 hrs by SRB assay; details: OVCAR-3, 48 h, read-out: GI
OVCAR-4 = experiment: Cytotoxicity against human OVCAR4 cells at 10 uM after 48 hrs by SRB assay
OVCAR-5 = experiment: Cytotoxicity against human OVCAR5 cells at 10 uM after 48 hrs by SRB assay
[22] = Cytotoxicity against human OVCAR8 cells at 10 uM after 48 hrs by SRB assay; details: OVCAR-8, 48 h, read-out: GI
[23] = Cytotoxicity against human SKOV3 cells at 10 uM after 48 hrs by SRB assay; details: SK-OV-3, 48 h, read-out: GI
786-0 = experiment: Cytotoxicity against human 786-0 cells at 10 uM after 48 hrs by SRB assay; details: 786-0, 48 h, read-out: GI
A498 = experiment: Cytotoxicity against human A498 cells at 10 uM after 48 hrs by SRB assay; details: A498, 48 h, read-out: GI
ACHN = experiment: Cytotoxicity against human ACHN cells at 10 uM after 48 hrs by SRB assay; details: read-out: GI

In the case of `Cc1nc2ccc(Nc3nc(Nc4ccc(F)cc4)nc(N4CCCCC4)n3)cc2n1Cc1ccccc1`, the inhibition of growth at 10 µM [1] is reported as 1.51%, the inhibition of growth at 10 µM [2] is reported as 13.8% and the inhibition of growth at 10 µM (SN12C) is reported as 3.75%. The inhibition of growth at 10 µM [3] was 7.88%, the inhibition of growth at 10 µM [4] was 15.7% and the inhibition of growth at 10 µM [5] was 21.3%. The “growth inhibition (GI)” value (DU-145) was “inactive”, the inhibition of growth at 10 µM (MCF7) was 38.8% and the “growth inhibition (GI)” value (MDA-MB-231) was “inactive”. For the same compound, the inhibition of growth at 10 µM [6] was 0.58%, the inhibition of growth at 10 µM [7] was 5.37% and the inhibition of growth at 10 µM (T47D) was 34.7%. For the same compound, the inhibition of growth at 10 µM (MDA-MB-468) was 17.2%, the inhibition of growth at 10 µM (CCRF-CEM) was 20.5% and the inhibition of growth at 10 µM (K562) was 26.5%. The inhibition of growth at 10 µM [8] was 30.7%, the inhibition of growth at 10 µM [9] was 25.2% and the inhibition of growth at 10 µM (SR) was 50.7%. The inhibition of growth at 10 µM (A549) was 29.2%, the “growth inhibition (GI)” value (HOP-62) was “inactive” and the inhibition of growth at 10 µM [10] was 24.7%. The inhibition of growth at 10 µM (NCI-H226) was 12.3%, the inhibition of growth at 10 µM (NCI-H23) was 5.43% and the “growth inhibition (GI)” value (NCI-H322M) was “inactive”. It also gave an inhibition of growth at 10 µM (NCI-H460) of 17.7%, an inhibition of growth at 10 µM (NCI-H522) of 30.1% and an inhibition of growth at 10 µM [11] of 2.32%. The “growth inhibition (GI)” value (HCC 2998) was “inactive”, the inhibition of growth at 10 µM [12] was 26.5% and the inhibition of growth at 10 µM [13] was 16.6%. It also gave an inhibition of growth at 10 µM (HT-29) of 28.9%, an inhibition of growth at 10 µM (KM12) of 8.36% and an inhibition of growth at 10 µM [14] of 5.34%. It also gave an inhibition of growth at 10 µM [15] of 4.31%, an inhibition of growth at 10 µM [16] of 9.64% and an inhibition of growth at 10 µM [17] of 2.48%. The inhibition of growth at 10 µM [18] was 17.5%, the inhibition of growth at 10 µM [19] was 4.31% and the inhibition of growth at 10 µM (U-251) was 21.5%. For the same compound, the “growth inhibition (GI)” value (LOX IMVI) was “inactive”, the “growth inhibition (GI)” value (Malme-3M) was “inactive” and the inhibition of growth at 10 µM (M14) was 7.86%. For the same compound, the inhibition of growth at 10 µM (MDA-MB-435) was 3.66%, the inhibition of growth at 10 µM (SK-MEL-28) was 3.66% and the inhibition of growth at 10 µM (SK-MEL-5) was 22.9%. The “growth inhibition (GI)” value (UACC-257) was “inactive”, the inhibition of growth at 10 µM [20] was 9.98% and the inhibition of growth at 10 µM [21] was 0.84%. The “growth inhibition (GI)” value (OVCAR-4) was “inactive”, the “growth inhibition (GI)” value (OVCAR-5) was “inactive” and the inhibition of growth at 10 µM [22] was 6.9%. The inhibition of growth at 10 µM [23] was 2.27%, the inhibition of growth at 10 µM (786-0) was 11.8% and the inhibition of growth at 10 µM (A498) was 24.9%. The inhibition of growth at 10 µM (ACHN) was 3.6%.
